Measured values as given in EP1614683B1, “Indazole compounds and pharmaceutical compositions for inhibiting protein kinases, and methods for their use” (priority 1999, dated 2001).
Like-named read-outs stand apart in the source and are kept apart here. Values belong to the compound of their own block, whether it stands above or below them.

Experiments:
[1] = in vivo; settings: mouse, plasma, 50 mg/kg, pH 2.3; for Cmax: po
[2] = IP, 50 mg/kg, vehicle PEG400:H2O pH 2.3 30:70
[3] = target: T1, human FAK (FAKcd409) (Homo sapiens, UniProt Q05397, P410T); assay: FAK fluorescence polarization assay; assay type: biochemical; settings: for inhibition at 1 µM: Table 5, read-out: % Inhibition @ 1 µM FAK
T1 construct: comprises residues methionine 409 to glutamate 689; made in house; host or cells: baculovirus vector expression system (insect cells)
Procedure: FAK Construct for Assay. The catalytic domain of human FAK (FAKcd409) was expressed using the baculovirus vector expression system. […] The protein was purified using classical chromatography techniques.
FAK HTS utilized the fluorescence polarization assay provided by LJL Biosystems. The kinase reaction contained: 100mM Hepes pH 7.5, 10mM MgCl2, 1mM DTT, 1mM ATP, and 1mg/ml poly Glu-Tyr (4: 1). The reaction is initiated by the addition of 5nM FAKcd409. The reaction is terminated by the addition of EDTA followed by addition of fluor-labelled peptide and anti-phosphotyrosine antibody, both provided by LJL Biosystems. Inhibition results are read on a Analyst (LJL) detector.

[4] = in vitro; assay type: in vitro ADME, human; settings: human liver microsomes, 5 µM test compound, 37 °C, 2 h
Summary of the method: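 HLM diluted to 5 mg/mL in 100 mM KPO4, preincubated 10 min at 37 °C with NADPH-regenerating system. Compound (5 µM final) incubated at 37 °C in triplicate, sampled at 0 and 2 h into ice-cold acetonitrile, then LC-MS analysis.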

[5] = test system: lung cancer cells (line MV522); assay: Cancer cell proliferation (MV522) assay; assay type: cell-based
Procedure: The protocol for assessing cellular proliferation in cancer cells is similar to that used for assessments in HUVEC cells. Two thousand lung cancer cells (line MV522, acquired from American Tissue Cultural Collection) were seeded in growth media (RPMI1640 medium supplemented with 2 mM glutamine and 10% FBS). Cells are allowed to attach for 1 day prior to addition of test agents and /or vehicles. Cells are treated simultaneously with the same test agents used in the HUVEC assay. Cellular proliferation is quantified by MTT dye reduction assay 72 hours after exposure to test agents. The total length of the assay is 4 days vs. 5 for HUVEC cells because MV522 cells are not exposed to starvation medium.

[6] = target: T2, phosphorylated Tie-2 (aa 775-1122) (Homo sapiens, UniProt Q02763); assay: TIE-2 spectrophotometric assay; assay type: biochemical; settings: for inhibition at 1 µM: Table 5, bold values spectrophotometric assay, non-bolded DELFIA assay (bold not visible here), read-out: % Inhibition @ 1 µM Tie2-P
T2 construct: 4 to 12 nM phosphorylated Tie-2 (aa 775-1122); made in house; host or cells: insect cells
Summary of the method: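 Human phosphorylated Tie-2 kinase activity was measured spectrophotometrically by coupling ADP formation, from phosphoryl transfer to poly(Glu4 Tyr), to NADH oxidation via pyruvate kinase and lactate dehydrogenase. Absorbance loss at 340 nm was read on a Beckman DU650. Reactions held 1 mM phosphoenolpyruvate, 0.24 mM NADH, 40 mM MgCl2, 5 mM DTT, 0.5 mM ATP, and 15 units/mL each of PK and LDH in 100 mM HEPES, pH 7.5.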

[7] = target: LCK tyrosine kinase (Homo sapiens, UniProt P06239, C224D/P223M); assay: LCK spectrophotometric assay; assay type: biochemical; settings: Table 1; compound concentration 1 µM; read-out: Lck-P* (% inhibition)
Procedure: The spectrophotometric assay was carried out as described above for VEGF-R2, except for the following changes in concentration: LCK = 60 nM, MgCl2 = 0 mM, poly(E4Y1) = 20 mM.

[8] = target: CDK4/Cyclin D3 complex (Homo sapiens, UniProt P11802); assay: biochemical; settings: for inhibition at 1 µM: read-out: CDK4 * (% inhibition)
[9] = test system: VEGF dependent retinal neovascularization; assay: Neonatal rat model of retinopathy of prematurity; assay type: in vivo; settings: Model ROP, intravitreal, 10 mg/ml, vehicle PEG/water 70:30
[10] = target: human FGF-R1 (Homo sapiens, UniProt P11362, C488A/C584S/L457V); assay: FGF-R spectrophotometric assay; assay type: biochemical; settings: Table 1; compound concentration 1 µM; read-out: FGF-P* (% inhibition)
Procedure: The spectrophotometric assay was carried out as described above for VEGF-R2, except for the following changes in concentration: FGF-R = 50 nM, ATP = 2 mM, and poly(E4Y1) =15 mM.

[11] = test system: human umbilical vein endothelial cells (HUVEC); assay: HUVEC proliferation assay (VEGF-stimulated, MTT); assay type: cell-based; settings: Homo sapiens, HUVEC, Table 1
[12] = target: T3, human CHK1 (FL-CHK1) (Homo sapiens, UniProt O14757); assay: CHK1 coupled spectrophotometric assay; assay type: biochemical; settings: read-out: CHK -1* (% inhibition)
T3 construct: C-terminally His-tagged full-length human CHK1 (FL-CHK1) was expressed using the baculovirus/insect cell system; made in house; host or cells: baculovirus/insect cell system
T3 sequence (O14757 1-476): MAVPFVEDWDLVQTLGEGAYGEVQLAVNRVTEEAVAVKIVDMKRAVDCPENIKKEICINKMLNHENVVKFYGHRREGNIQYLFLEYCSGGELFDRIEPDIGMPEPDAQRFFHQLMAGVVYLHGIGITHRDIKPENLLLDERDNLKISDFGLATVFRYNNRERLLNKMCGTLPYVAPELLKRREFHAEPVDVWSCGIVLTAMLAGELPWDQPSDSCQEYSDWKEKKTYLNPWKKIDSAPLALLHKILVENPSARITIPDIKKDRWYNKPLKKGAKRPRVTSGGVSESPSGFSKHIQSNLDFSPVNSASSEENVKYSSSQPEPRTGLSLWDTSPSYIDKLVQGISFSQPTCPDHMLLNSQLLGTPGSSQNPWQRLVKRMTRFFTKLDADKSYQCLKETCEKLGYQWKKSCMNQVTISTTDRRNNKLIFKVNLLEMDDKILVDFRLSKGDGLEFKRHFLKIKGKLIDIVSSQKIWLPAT
Summary of the method: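 His-tagged full-length human CHK1 from baculovirus/insect cells, 10 nM, phosphorylating Syntide-2. ADP formation coupled via PK/LDH with PEP to NADH oxidation, followed as absorbance decrease at 340 nm. Ki from initial rates at varying compound concentrations.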

[13] = target: CDK2/Cyclin A complex (Homo sapiens, UniProt P24941); assay: CDK2/Cyclin A assay ([32P]ATP incorporation into Rb fragment); assay type: biochemical; settings: for inhibition at 1 µM: read-out: CDK2 * (% inhibition)
[14] = target: CDK1 (Homo sapiens, UniProt P06493); assay: CDK1 assay (Table 3); assay type: biochemical; settings: Table 3, compound concentration 1 µM, NI = no significant inhibition; for inhibition at 1 µM: read-out: CDK1* (% inhibition)
[15] = target: unphosphorylated VEGF-R2Δ50 (Homo sapiens, UniProt P35968, DEL940-989/E990V); assay: biochemical; settings: read-out: FLVK* (% inhibition)
[16] = MV522, Table 1, read-out: MV522 IC50
[17] = + albumin, read-out: HUVEC + albumin IC50

CDK1, sequence (P06493 whole entry, species assumed): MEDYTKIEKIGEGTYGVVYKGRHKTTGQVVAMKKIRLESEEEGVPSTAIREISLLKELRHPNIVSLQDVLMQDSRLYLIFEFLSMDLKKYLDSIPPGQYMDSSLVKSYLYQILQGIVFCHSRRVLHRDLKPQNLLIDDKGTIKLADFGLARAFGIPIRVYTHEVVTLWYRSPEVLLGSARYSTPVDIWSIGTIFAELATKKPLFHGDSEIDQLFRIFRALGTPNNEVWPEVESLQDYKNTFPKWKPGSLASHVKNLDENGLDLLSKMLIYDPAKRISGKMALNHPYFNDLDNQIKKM
CDK1, sequence (P14635 whole entry partner, species assumed): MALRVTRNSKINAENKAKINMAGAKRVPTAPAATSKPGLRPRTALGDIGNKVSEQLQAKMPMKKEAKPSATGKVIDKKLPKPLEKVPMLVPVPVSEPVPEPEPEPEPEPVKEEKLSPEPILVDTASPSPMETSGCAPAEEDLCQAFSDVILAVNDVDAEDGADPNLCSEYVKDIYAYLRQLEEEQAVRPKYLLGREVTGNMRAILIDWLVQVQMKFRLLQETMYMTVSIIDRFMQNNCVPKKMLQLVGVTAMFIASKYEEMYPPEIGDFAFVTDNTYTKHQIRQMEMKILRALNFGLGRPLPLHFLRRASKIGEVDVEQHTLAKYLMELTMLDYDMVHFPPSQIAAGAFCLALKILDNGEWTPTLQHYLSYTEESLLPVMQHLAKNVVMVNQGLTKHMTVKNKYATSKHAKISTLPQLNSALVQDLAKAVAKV
LCK tyrosine kinase, sequence (P06239 223-509 P223M/C224D): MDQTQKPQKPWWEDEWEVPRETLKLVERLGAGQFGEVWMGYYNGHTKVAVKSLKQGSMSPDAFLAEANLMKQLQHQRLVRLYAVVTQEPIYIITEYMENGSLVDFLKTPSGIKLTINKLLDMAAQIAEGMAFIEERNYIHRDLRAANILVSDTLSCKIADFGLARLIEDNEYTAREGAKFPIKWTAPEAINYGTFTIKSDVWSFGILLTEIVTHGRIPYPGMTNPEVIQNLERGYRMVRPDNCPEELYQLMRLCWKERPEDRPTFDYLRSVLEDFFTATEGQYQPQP
T1 sequence (Q05397 409-689 P410T): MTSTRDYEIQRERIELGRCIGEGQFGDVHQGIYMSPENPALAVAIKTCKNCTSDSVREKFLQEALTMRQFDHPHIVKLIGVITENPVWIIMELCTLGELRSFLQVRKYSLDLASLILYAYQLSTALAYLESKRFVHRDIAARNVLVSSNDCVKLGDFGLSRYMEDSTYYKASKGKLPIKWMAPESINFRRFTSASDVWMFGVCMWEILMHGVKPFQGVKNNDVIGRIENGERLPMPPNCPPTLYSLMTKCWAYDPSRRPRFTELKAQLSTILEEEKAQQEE
T2 sequence (Q02763 775-1122): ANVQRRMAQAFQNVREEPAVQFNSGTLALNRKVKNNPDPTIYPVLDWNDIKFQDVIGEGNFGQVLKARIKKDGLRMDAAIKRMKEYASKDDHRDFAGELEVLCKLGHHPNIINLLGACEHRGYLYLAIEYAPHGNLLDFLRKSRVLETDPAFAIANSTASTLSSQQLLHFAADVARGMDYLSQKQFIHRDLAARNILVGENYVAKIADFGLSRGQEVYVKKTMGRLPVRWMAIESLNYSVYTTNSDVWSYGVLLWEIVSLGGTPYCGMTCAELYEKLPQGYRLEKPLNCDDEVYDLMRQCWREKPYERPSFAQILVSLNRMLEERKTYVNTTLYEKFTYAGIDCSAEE
human FGF-R1, sequence (P11362 456-766 L457V/C488A/C584S): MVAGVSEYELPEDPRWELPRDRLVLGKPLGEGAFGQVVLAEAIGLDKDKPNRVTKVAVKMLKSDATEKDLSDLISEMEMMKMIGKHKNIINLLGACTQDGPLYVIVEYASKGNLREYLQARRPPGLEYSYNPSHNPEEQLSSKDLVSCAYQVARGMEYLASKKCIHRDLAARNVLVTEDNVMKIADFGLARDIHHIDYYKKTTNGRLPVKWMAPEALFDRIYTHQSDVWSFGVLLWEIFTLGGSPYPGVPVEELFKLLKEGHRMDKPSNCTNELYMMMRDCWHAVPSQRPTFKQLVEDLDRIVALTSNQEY
CDK4/Cyclin D3 complex, sequence (P11802 whole entry): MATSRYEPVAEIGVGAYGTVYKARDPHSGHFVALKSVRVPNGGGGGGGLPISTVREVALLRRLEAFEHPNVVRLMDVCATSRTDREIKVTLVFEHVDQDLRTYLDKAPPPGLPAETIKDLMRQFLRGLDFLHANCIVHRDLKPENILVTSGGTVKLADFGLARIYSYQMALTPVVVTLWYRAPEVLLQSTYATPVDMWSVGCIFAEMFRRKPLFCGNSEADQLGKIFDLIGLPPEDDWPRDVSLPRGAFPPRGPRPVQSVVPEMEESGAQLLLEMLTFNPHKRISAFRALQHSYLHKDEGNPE
CDK4/Cyclin D3 complex, sequence (P30281 whole entry partner): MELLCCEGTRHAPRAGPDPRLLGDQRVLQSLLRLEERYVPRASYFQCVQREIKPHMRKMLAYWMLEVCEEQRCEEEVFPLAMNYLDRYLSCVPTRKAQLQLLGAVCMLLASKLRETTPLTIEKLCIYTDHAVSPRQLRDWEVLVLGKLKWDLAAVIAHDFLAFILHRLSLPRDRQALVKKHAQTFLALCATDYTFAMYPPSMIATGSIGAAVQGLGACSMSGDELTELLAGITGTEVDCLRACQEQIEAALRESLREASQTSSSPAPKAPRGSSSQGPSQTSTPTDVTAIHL
unphosphorylated VEGF-R2Δ50, sequence (P35968 with tags, fused parts or gaps DEL940-989/E990V limits assumed): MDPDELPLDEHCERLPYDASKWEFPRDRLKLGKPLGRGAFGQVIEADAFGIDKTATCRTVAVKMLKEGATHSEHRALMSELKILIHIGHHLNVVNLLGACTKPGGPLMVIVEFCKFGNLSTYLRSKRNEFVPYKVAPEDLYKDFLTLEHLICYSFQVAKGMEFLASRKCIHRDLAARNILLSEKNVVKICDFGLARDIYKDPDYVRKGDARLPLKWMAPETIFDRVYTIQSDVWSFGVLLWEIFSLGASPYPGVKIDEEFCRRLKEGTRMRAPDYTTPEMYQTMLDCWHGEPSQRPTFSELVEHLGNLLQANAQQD

SMILES: COc1cc(-c2ccc3c(/C=C/c4ccc(OC)c(OC)c4)n[nH]c3c2)ccc1O [1(a), 3-[E-2-(3,4-Dimethoxy-phenyl)vinyl]-6-(3-methoxy-4-hydroxyphenyl)-1H-indazole]
AUC ([1]; ip): 691 ng·h/mL
T1/2 [2]: 2.4 h
inhibition at 10 µM ([3]; read-out: % Inhibition FAK, compound tested at 10 µM): 69%
% remain (HLM, 2 h) [4]: 98%
IC50 ([5]; MV522, read-out: MV522 IC50 (µM)): 0.35 µM
inhibition at 10 µM ([6]; read-out: % Inhibition Tie2-P, compound tested at 10 µM): 95%

Cmax [1]: 50 ng/mL
inhibition at 1 µM [7]: 68%
inhibition at 1 µM [8]: 19%
IC50 [5, 16]: 6.3 µM
inhibition at 1 µM [6]: 69%
SMILES: O=C(Nc1cccc(Oc2ccc3c(/C=C/c4ccccc4)n[nH]c3c2)c1)c1ccccc1 [4(a), N-[3-(3-Styryl-1H-indazol-6-yloxy)-phenyl]-benzamide]
Initial Evaluation [9]: ++ (two pluses being judged to be approximately 25-75 % regression)

SMILES: O=C(Nc1cccc(C(=O)c2ccc3c(/C=C/c4ccccc4)n[nH]c3c2)c1)c1ccccc1 [19(b), N-[3-(3-Styryl-1H-indazole-6-carbonyl)-phenyl]-benzamide]
Cmax [1]: 30 ng/mL
inhibition at 1 µM [7]: 58%
inhibition at 1 µM [8]: 11%
inhibition at 1 µM [10]: 60%
IC50 [11, 17]: 0.027 µM
IC50 ([11]; read-out: HUVEC IC50): 0.0029 µM
Initial Evaluation [9]: ++ (two pluses being judged to be approximately 25-75 % regression)
remaining at 2 h, 5 µM ([4]; read-out: % remain (HLM, 2 h)): 137%
IC50 [5, 16]: 4.3 µM

SMILES: C=C(c1cccc(NC(C)=O)c1)c1ccc2c(/C=C/c3ccccc3)n[nH]c2c1 [Example 23, 6-(1-(3-Acetamido-phenyl)-vinyl)-3-styryl-1H-indazole]
inhibition at 1 µM [7]: 12%
inhibition at 1 µM [8]: 17%
inhibition at 1 µM [10]: 14%
IC50 [11, 17]: 0.106 µM
IC50 ([11]; read-out: HUVEC IC50): 0.0095 µM
IC50 [5, 16]: 5.7 µM
inhibition at 1 µM [6]: 5%

SMILES: CCn1nc(C)cc1C(=O)Nc1cc(Nc2ccc3c(/C=C/c4ccccn4)n[nH]c3c2)c(F)cc1C [Example 48(a), 6-[N.(S-((1-Ethyl-3-methyl-1H-pyrazol-5-yl)carboxamido)-2-fluoro-4-methylphenyl)amino]-3-E-[2-(pyridin-2-yl)ethenyl]-1H-indazole]
inhibition at 1 µM [7]: 13%
inhibition at 1 µM [12]: 0%
inhibition at 1 µM [3]: 11%
inhibition at 1 µM [13]: 0%
% remain (HLM, 2 h) [4]: 55%
inhibition at 1 µM [6]: 52%

SMILES: NC(=O)c1ccc2c(-c3nc4ccccc4[nH]3)n[nH]c2c1 [Example 53(e), 3-(1H-Benzoimidazol-2-yl)-1H-indazole-6-carboxamide]
inhibition at 1 µM [14]: 13%

SMILES: O=C(Nc1ccc(O)cc1)c1ccc2c(-c3nc4cc(F)c(F)cc4[nH]3)n[nH]c2c1 [Example 54(a), 3-(5,6-Difluoro-1H-benzoimidazol-2-yl)-N-(4-hydroxyphenyl)-1H-indazole-6-carboxamide]
inhibition at 1 µM [14]: 1%

CDK1* (% inhibition) [14]: Nl @ 1µM
SMILES: O=C(Nc1ccc(O)cc1)c1ccc2c(-c3nc4ccc5ccccc5c4[nH]3)n[nH]c2c1 [Example 54(e), 3-[1H-Naphtho(1,2-d)imidazol-2-yl]-N-(4-hydroxyphenyl)-1H-indazole-6-carboxamide]

SMILES: CC(C)(C)c1ccc2[nH]c(-c3n[nH]c4cc(C(=O)Nc5ccc(O)cc5)ccc34)nc2c1 [Example 54(g), 3-(5-tert-Butyl-1H-benzoimidazol-2-yl)-N-(4-hydroxyphenyl)-1H-indazole-6-carboxamide]
inhibition at 1 µM [14]: 3%

SMILES: CCOc1cc(CO)c(-c2ccc3c(-c4nc5ccccc5[nH]4)n[nH]c3c2)cc1OC [Reference Example 24(m), 3-1H-Benzoimidazol-2-yl-6-(2-(hydroxymethyl)-4-ethoxy-5-methozy-phenyl)-1H-indazole]
inhibition at 1 µM [8]: 16%
inhibition at 1 µM [13]: 17%

SMILES: Oc1ccc(-c2ccc3c(/C=C/c4ccccc4)n[nH]c3c2)cc1 [Reference Example 28(b), 6-(4-hydroxyphenyl)-3-E-styryl-1H-indazole]
inhibition at 1 µM [8]: 98%
inhibition at 1 µM [15]: 96%
inhibition at 1 µM [13]: 97%

Ki [8]: 5 µM
Ki ([13]; Table 3, read-out: CDK2* (Ki)): 3.1 µM
SMILES: Clc1cccc(/C=C/c2n[nH]c3cc(-c4ccncc4)ccc23)c1 [Reference Example 29(i), 6-pyrid-4-yl-3-E-[2-(3-chlorophenyl)ethenyl]-1H-indazole]

SMILES: Cc1cc(C(=O)Nc2cccc(C(=O)c3ccc4c(/C=C/c5ccccn5)n[nH]c4c3)c2)n(C)n1 [Reference Example 41(p), 6-[3-((1,3-Dimethyl-1H-pyrazol-5-yl)carboxamido)benzoyl]-3-E-[2-(pyridin-2-yl)ethenyl]-1H-indazole]
inhibition at 1 µM [7]: 49%
inhibition at 1 µM [12]: 0%
inhibition at 1 µM [8]: 3%
IC50 [11, 17]: 0.0026 µM
IC50 ([11]; read-out: HUVEC IC50): 0.00027 µM
inhibition at 1 µM [3]: 9%
inhibition at 1 µM [13]: 6%
% remain (HLM, 2 h) [4]: 62%
inhibition at 1 µM [6]: 49%

SMILES: C=CCn1nc(C)cc1C(=O)Nc1cccc(C(=O)c2ccc3c(/C=C/c4ccccn4)n[nH]c3c2)c1 [Reference Example 41(t), 6-[3-((1-Allyl-3-methyl-1H-pyrazol-5-yl)carboxamido)benzoyl]-3-E-[2-(pyridin-2-yl)ethenyl]-1H-indazole]
inhibition at 1 µM [7]: 51%
inhibition at 1 µM [12]: 0%
inhibition at 1 µM [8]: 2%
inhibition at 1 µM [10]: 85%
IC50 [11, 17]: 0.0038 µM
inhibition at 1 µM [3]: 9%
inhibition at 1 µM [13]: 1%
% remain (HLM, 2 h) [4]: 87%
inhibition at 1 µM [6]: 51%
